Results as given in ChEMBL document CHEMBL1150527, “Bifunctional antitumor agents: a DNA interactive enediyne from the pyrrolo[9,10-b]phenanthrene template” (Bioorg Med Chem Lett, 1997).

Legend:
Format in all cases: nucleic-acid assay
Nucleic Acid [1] = experiment: DNA cleavage activity using supercoiled bacteriophage (piX174Rf I) DNA at 10e-3 M concentration (95% control)
Nucleic Acid [2] = experiment: DNA cleavage activity using supercoiled bacteriophage (piX174Rf I) DNA at 10e-4 M concentration (95% control)
Nucleic Acid [3] = experiment: DNA cleavage activity using supercoiled bacteriophage (piX174Rf I) DNA at 10e-5 M concentration (95% control)
Nucleic Acid [4] = experiment: DNA cleavage activity using supercoiled bacteriophage (piX174Rf II) DNA at 10e-3 M concentration (5% control)
Nucleic Acid [5] = experiment: DNA cleavage activity using supercoiled bacteriophage (piX174Rf II) DNA at 10e-4 M concentration (5% control)
Nucleic Acid [6] = experiment: DNA cleavage activity using supercoiled bacteriophage (piX174Rf II) DNA at 10e-5 M concentration (5% control)
Nucleic Acid [7] = experiment: DNA cleavage activity using supercoiled bacteriophage (piX174Rf III) DNA at 10e-3 M concentration (0% control)
Nucleic Acid [8] = experiment: DNA cleavage activity using supercoiled bacteriophage (piX174Rf III) DNA at 10e-4 M concentration (0% control)
Nucleic Acid [9] = experiment: DNA cleavage activity using supercoiled bacteriophage (piX174Rf III) DNA at 10e-5 M concentration (0% control)

| Cleavage (Nucleic Acid [1]) | Cleavage (Nucleic Acid [2]) | Cleavage (Nucleic Acid [3]) | Cleavage (Nucleic Acid [4]) | Cleavage (Nucleic Acid [5]) | Cleavage (Nucleic Acid [6]) | Cleavage (Nucleic Acid [7]) | Cleavage (Nucleic Acid [8]) | Cleavage (Nucleic Acid [9]) | Structure (SMILES) |
| --- | --- | --- | --- | --- | --- | --- | --- | --- | --- |
| 7% | 45% | 79% | 88% | 55% | 21% | 5% | 0% | 0% | O=C(OCC1CC#C/C=C\C#CCC1)c1cc2c3ccccc3c3ccccc3c2[nH]1 (stereo not drawn) |
| 15% | 78% | 93% | 82% | 22% | 7% | 3% | 0% | 0% | O=C(OCC1CC#C/C=C\C#CCC1)c1ccccc1 (stereo not drawn) |
